Assays:
[1] = molecular target: T1, AIM2 inflammasome (Mus musculus, UniProt Q91VJ1); assay: AIM2 inflammasome activation: BMDM stimulated with LPS and transfected Poly; format: cell-based
T1 sequence (Q91VJ1 1-354): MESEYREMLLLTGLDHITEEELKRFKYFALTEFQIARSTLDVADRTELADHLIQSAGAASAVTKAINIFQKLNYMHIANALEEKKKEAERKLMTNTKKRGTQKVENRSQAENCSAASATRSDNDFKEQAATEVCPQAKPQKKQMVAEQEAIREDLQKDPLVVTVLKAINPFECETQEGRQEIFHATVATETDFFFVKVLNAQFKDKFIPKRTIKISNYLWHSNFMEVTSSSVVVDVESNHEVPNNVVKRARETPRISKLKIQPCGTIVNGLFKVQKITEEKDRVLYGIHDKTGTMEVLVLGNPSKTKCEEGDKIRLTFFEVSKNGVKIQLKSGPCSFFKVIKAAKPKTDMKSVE

[2] = Aqueous solubility; format: physicochemical; conditions: sodium salt
[3] = test system: K+ efflux; assay: Intracellular K+ by ICP-OES in BMDM; format: cell-based, mouse; conditions: LPS primed BMDM, MCC950 10–300 nM
[4] = test system: Ca2+ flux; assay: ATP induced Ca2+ flux in BMDM; conditions: WT or Ice−/− BMDM
[5] = molecular target: CYP 2C19 (Homo sapiens, UniProt P33261); assay: CYP inhibition in human liver microsomes, substrate cocktail; conditions: 10 µM
[6] = molecular target: CYP 2C9 (Homo sapiens, UniProt P11712); assay: as above; conditions: 10 µM
[7] = test system: NLRP1; assay: Nlrp1a Q593P activating mutation mice; format: in vivo; conditions: NLRP1 mutant mice, 20 mg/kg i.p. every second day for 9 days; P = 0.7
[8] = molecular target: CYP 2D6 (Homo sapiens, UniProt P10635); assay: CYP inhibition in human liver microsomes, substrate cocktail; conditions: 10 µM
[9] = test system: NLRP1; format: cell-based
[10] = Stability with human liver microsomes
[11] = molecular target: NLRC4 (Mus musculus, UniProt Q3UP24); assay: NLRC4 inflammasome activation: BMDM stimulated with LPS and S. typhimurium; format: cell-based; conditions: for NLRC4-stimulated IL-1β secretion / NLRC4-stimulated TNF-α secretion / expression of pro-IL-1β (and pro-caspase-1) in cell lysates: LPS and S. typhimurium; for NLRC4-stimulated IL-1β secretion / NLRC4-stimulated TNF-α secretion: MCC950 up to 10 µM, parthenolide 10 µM
[12] = molecular target: CYP 3A4 (Homo sapiens, UniProt P08684); assay: CYP inhibition in human liver microsomes, substrate cocktail; conditions: 10 µM
[13] = Stability with mouse liver microsomes
[14] = test system: EAE; assay: Experimental autoimmune encephalomyelitis; format: in vivo, C57BL/6 mice
[15] = test system: TLR signalling; assay: Priming / TLR signalling: BMDM pre-treated and stimulated with LPS or Poly; format: cell-based, mouse; conditions: for LPS-induced (TLR4) TNF-α secretion / Poly(A:U)-induced (TLR3) TNF-α secretion: BMDM, ELISA
[16] = molecular target: human ether-a-go-go (hERG) potassium channel (Homo sapiens, UniProt Q12809); assay: cell-based
[17] = molecular target: T2, CYP 1A2 (Homo sapiens, UniProt P05177); assay: CYP inhibition in human liver microsomes, substrate cocktail; conditions: 10 µM
T2 sequence (P05177 1-516): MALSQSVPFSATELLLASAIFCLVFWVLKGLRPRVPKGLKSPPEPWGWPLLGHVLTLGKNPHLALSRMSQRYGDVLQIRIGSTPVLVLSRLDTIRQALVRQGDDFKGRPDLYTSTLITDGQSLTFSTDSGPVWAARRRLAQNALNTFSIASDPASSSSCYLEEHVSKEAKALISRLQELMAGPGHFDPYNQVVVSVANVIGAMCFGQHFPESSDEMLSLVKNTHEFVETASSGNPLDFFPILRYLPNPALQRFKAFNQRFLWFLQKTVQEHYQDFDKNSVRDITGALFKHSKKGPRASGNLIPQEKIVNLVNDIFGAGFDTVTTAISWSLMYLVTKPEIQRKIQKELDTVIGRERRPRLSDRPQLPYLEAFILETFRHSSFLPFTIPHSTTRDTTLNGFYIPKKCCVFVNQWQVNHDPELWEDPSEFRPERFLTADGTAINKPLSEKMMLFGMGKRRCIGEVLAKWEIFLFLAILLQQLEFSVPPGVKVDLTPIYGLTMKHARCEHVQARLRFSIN

[18] = LPS and Poly(dA:dT), Bayer compound 40 µM

Chain of NLRC4 (Q3UP24 whole entry): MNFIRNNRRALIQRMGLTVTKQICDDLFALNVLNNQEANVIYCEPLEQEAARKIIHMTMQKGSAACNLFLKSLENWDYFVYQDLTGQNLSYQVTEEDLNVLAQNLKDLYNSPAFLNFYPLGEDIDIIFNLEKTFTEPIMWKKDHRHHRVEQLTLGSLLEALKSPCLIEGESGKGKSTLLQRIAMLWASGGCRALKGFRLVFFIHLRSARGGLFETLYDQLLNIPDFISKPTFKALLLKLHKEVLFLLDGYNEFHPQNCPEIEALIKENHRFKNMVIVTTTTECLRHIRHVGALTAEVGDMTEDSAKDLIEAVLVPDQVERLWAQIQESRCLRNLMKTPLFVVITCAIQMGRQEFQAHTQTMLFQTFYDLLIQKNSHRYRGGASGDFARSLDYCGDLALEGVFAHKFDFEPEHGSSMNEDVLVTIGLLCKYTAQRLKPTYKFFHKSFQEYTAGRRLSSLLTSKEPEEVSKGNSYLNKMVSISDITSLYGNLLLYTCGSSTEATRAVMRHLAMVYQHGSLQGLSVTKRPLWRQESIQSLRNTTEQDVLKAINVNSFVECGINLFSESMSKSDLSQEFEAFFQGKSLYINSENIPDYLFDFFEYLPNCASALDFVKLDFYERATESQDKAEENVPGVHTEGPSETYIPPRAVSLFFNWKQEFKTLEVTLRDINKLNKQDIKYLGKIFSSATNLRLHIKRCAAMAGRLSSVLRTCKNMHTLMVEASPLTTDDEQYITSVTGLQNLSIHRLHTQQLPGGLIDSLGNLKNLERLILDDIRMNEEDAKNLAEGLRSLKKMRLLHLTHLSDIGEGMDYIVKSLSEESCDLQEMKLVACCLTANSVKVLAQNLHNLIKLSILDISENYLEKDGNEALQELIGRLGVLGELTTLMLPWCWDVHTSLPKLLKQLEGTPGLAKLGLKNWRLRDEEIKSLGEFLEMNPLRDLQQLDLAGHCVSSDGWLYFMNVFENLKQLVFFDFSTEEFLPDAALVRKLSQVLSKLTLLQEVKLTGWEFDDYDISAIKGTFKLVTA
Chain of CYP 2C19 (P33261 whole entry): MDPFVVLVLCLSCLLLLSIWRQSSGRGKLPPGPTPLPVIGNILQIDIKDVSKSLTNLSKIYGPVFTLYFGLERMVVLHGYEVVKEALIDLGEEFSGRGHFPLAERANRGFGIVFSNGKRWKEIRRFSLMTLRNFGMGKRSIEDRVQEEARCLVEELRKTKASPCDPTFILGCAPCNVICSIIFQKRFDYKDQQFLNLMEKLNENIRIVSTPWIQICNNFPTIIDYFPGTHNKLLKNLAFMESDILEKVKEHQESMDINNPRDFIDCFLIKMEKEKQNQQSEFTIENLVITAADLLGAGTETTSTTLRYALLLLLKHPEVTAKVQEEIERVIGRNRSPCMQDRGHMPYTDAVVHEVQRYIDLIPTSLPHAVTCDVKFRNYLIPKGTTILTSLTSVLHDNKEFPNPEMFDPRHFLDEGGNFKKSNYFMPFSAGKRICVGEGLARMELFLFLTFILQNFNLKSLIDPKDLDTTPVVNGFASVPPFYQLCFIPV
Chain of CYP 2C9 (P11712 whole entry): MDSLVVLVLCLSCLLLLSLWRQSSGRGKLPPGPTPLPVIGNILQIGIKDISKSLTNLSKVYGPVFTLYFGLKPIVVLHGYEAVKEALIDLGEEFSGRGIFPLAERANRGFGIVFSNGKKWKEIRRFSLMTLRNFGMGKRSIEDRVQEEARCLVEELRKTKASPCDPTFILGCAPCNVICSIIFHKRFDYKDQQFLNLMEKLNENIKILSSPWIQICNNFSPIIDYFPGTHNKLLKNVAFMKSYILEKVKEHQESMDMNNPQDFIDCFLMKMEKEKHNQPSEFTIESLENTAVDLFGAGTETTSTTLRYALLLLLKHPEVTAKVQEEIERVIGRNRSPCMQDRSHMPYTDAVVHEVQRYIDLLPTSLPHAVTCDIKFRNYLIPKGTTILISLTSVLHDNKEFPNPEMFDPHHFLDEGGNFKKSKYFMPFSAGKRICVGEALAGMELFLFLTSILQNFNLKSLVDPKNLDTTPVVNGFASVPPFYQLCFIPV
Chain of human ether-a-go-go (hERG) potassium channel (Q12809 whole entry): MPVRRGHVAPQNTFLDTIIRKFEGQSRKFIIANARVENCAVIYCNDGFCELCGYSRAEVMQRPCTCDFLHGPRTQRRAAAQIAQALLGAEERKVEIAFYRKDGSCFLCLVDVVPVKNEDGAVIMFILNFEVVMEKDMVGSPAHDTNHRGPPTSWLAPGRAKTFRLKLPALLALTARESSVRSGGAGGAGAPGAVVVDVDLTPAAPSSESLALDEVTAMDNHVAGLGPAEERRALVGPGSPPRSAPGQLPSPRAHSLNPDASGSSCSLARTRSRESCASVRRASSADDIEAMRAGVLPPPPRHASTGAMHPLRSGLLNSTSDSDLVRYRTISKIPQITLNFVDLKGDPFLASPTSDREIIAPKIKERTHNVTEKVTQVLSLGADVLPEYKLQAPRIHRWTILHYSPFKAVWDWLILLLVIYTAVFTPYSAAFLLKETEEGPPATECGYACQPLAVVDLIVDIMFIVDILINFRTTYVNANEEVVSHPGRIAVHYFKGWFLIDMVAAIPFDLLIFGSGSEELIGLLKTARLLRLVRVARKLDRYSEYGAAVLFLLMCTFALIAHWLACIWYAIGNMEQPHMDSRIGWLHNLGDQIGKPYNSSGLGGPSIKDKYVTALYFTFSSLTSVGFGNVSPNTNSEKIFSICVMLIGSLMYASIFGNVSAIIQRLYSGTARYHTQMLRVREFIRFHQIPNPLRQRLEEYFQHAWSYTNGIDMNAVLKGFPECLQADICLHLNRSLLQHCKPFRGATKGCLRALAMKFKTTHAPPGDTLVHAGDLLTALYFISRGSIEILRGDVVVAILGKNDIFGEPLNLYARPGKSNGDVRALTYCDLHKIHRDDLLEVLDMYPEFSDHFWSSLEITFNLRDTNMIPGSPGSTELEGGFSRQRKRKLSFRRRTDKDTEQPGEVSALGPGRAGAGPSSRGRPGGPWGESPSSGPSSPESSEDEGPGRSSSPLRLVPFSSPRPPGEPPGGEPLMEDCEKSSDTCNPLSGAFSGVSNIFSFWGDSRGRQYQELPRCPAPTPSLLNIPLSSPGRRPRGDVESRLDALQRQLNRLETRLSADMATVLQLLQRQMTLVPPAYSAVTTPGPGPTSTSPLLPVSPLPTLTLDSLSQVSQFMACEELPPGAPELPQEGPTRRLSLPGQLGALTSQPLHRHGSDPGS
Chain of CYP 3A4 (P08684 whole entry): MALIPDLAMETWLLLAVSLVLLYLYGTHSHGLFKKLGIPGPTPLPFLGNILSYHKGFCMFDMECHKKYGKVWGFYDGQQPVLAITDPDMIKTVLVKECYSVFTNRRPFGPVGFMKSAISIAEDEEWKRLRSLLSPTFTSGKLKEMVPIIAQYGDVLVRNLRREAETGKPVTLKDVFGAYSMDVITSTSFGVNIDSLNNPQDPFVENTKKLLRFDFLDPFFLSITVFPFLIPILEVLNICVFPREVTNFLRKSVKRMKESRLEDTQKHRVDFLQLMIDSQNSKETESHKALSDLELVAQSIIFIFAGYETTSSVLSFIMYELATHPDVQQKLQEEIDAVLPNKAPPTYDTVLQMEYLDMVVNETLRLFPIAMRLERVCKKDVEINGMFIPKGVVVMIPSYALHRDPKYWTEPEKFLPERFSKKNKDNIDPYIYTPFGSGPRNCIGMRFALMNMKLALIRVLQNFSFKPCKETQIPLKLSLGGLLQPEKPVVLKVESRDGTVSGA
Chain of CYP 2D6 (P10635 whole entry): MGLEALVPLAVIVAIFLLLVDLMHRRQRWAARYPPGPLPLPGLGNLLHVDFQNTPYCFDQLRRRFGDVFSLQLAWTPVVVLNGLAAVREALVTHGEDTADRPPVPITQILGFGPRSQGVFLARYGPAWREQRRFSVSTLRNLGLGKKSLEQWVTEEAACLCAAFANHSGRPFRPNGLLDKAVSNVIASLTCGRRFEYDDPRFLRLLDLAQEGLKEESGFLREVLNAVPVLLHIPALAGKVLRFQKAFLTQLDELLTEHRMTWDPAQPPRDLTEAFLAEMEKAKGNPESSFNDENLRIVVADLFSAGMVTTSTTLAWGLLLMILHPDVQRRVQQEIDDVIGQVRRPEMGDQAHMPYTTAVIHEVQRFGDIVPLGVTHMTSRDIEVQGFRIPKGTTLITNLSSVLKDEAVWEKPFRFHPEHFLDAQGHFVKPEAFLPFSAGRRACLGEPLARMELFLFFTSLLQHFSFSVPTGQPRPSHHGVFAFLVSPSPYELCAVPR

O=C(O)c1ccc(OCCCc2ccc(OCCCC3CCCCC3)cc2)c(C(=O)N2CCC(C(=O)O)CC2)c1 [Bayer compound, 1-(5-carboxy-2{3-[4-(3-cyclohexylpropoxy)phenyl]propoxy}benzoyl)piperidine-4-carboxylic acid, reference compound]
IL-1β secretion [1, 18]: inhibited | Poly(dA:dT) stimulated caspase-1 activation ([1]; Western blot): inhibited

CC(C)(O)c1coc(S(=O)(=O)[N-]C(=O)Nc2c3c(cc4c2CCC4)CCC3)c1.[Na+] [MCC950 sodium salt]
solubility in aqueous solutions [2]: highly soluble

CC(C)(O)c1coc(S(=O)(=O)NC(=O)Nc2c3c(cc4c2CCC4)CCC3)c1 [MCC950, 1-(1,2,3,5,6,7-hexahydro-s-indacen-4-yl)-3-[4-(1-hydroxy-1-methyl-ethyl)-furan-2-sulfonyl]urea]
IL-1β secretion [1, 18]: did not attenuate | TNF-α secretion [1, 18]: did not attenuate | K+ efflux triggered by nigericin, ATP and SiO2 [3]: did not prevent | ATP induced increase in intracellular Ca2+ [4]: did not substantially affect | inhibition of CYP 2C19 [5]: less than 15% | inhibition of CYP 2C9 [6]: less than 15% | serum concentrations of IL-18 [7]: did not significantly alter | inhibition of CYP 2D6 [8]: less than 15% | ASC speck formation [9]: not decreased | compound remaining after 60 min [10]: more than 70% | NLRC4-stimulated IL-1β secretion [11]: not inhibited | NLRC4-stimulated TNF-α secretion [11]: not inhibited | expression of pro-IL-1β (and pro-caspase-1) in cell lysates ([11]; Western blot): not substantially affected | caspase-1 activation / IL-1β processing in response to S. typhimurium ([11]; Western blot): did not inhibit | inhibition of CYP 3A4 [12]: less than 15% | compound remaining after 60 min [13]: more than 70% | EAE onset and severity (clinical scores) ([14]; 10 mg/kg i.p. day 0, 1, 2 and every 2 days thereafter): delayed the onset and reduced the severity | frequencies of IL-17 and IFN-γ producing CD3+ T cells in brain mononuclear cells ([14]; day 22, vs PBS-treated mice): modestly reduced | LPS stimulated induction of NLRP3 and pro-IL-1β ([15]; BMDM pre-treated, LPS 4 h, Western blot): not affected | LPS-induced (TLR4) TNF-α secretion [15]: did not affect | Poly(A:U)-induced (TLR3) TNF-α secretion [15]: did not affect | IC50 [16]: > 30 µM | inhibition of CYP 1A2 [17]: less than 15%

C=C1C(=O)O[C@H]2[C@H]1CC/C(C)=C/CC[C@@]1(C)O[C@@H]21 [parthenolide, reference compound]
NLRC4-stimulated IL-1β secretion [11]: attenuated | NLRC4-stimulated TNF-α secretion [11]: attenuated | expression of pro-IL-1β (and pro-caspase-1) in cell lysates ([11]; Western blot): attenuated | LPS-induced (TLR4) TNF-α secretion [15]: abrogated | Poly(A:U)-induced (TLR3) TNF-α secretion [15]: abrogated

Reference: publication PMC4392179 (Nature medicine, 2015)
